Data published in patent publication US11378572B2, “Therapeutic agent for immune cell migration-caused disease and method for screening same” (ZYMEDI CO., LTD., priority 2017, dated 2022).

How the values were obtained:
[1] = test system: FHH rats with superimposed hypertension; test: FHH rat with superimposed hypertension (uninephrectomy, DOCA, 1% NaCl); type: in vivo
Method: Experiments were performed using male FHH rats of 9-12 weeks of age. These animals were provided by the University of Mississippi Medical Center and approved by the American Association for Accreditation of Laboratory Animal Care (AAALAC). All protocols were approved by the Institutional Animal Care and Use Committee of the University of Mississippi Medical Center. Rats were fed ad libitum, and provided with a purified AIN-76 rodent feed containing 0.4% NaCl (Dyets, Bethlehem, Pa.) after weaning. Fawn-hooded hypertensive (FHH) rat is a genetic model of spontaneous hypertension associated with glomerular hyperfiltration and proteinuria. In order to promote glomerular damage in this rat, DOCA strips were implanted after single (one) kidney extraction.
Specifically, FHH rats were anesthetized with isoflurane and telemetry transmitters (model TA11PAC40, Data Sciences International, St. Paul, Minn.) were implanted as described in ‘Williams, J. M. et al. […] Regul Integr Comp Physiol (2012)’. Briefly, surgery was performed under 2% to 3% isoflurane-O2, and the catheter of the device was inserted into the left femoral artery and guided upstream to the aorta. Body part of the telemetry unit was placed in the lateral cavity of the left leg and sutured with muscle tissue. Skin was then closed. To prevent infection, animals were given Baytril (10 mg/kg) and Rimadyl (5 mg/kg), a long-acting analgesic to control surgical pain. After surgery, rats were housed in individual cages in a quiet air-conditioned room environment with a 12:12 hour light-dark cycle and it took a week to fully recover from surgery. Thereafter, the basic mean arterial blood pressure (MAP) and proteinuria were measured for 4 hours (10 am to […]) before the rats were housed in the metabolic cage. Proteinuria was measured using the Bradford method and BSA (Bio-Rad Laboratories, Hercules, Calif.) as a standard.
One week after the transmitter insertion, rats were uninephrectomized as described in Wang, X. et al. Am J Physiol Renal Physiol (2016). Briefly, rats were anesthetized with 2-3% isoflurane-O2 and the right flank was dissected in aseptic condition. The right kidney was gently lifted and threaded tightly around the renal vessels and ureters. The right kidney was extracted by cutting the distal ends of the renal vessels and ureters. The incision was closed with a continuous subcutaneous stitch, after which the skin was further closed. After the rat's right kidney was removed, DOCA pellets (200 mg, Innovative Research of America) was subcutaneously implanted in the neck.
After single kidney extraction and DOCA transplant surgery, rats had recovery time for 3 days. Rats were provided with water containing 1% NaCl in place of distilled water, and randomly divided into two groups: Group 1 (n=15) was administered with BC-KI-00053 (25 mg/kg daily) by gastrointestinal gavage; Group 2 (n=15) was administered with the same volume (2.5 ml/kg daily) of vehicle (corn oil, polyethylene glycol 400, Tween 80 and methylcellulose) by gastrointestinal gavage. Blood pressure and proteinuria were measured weekly for 3 weeks in the experimental group. At the end of the experiment, rats were anesthetized with isoflurane and blood samples were taken to measure creatinine levels. Rats were then flushed with 50 ml of 0.9% NaCl through aorta and perfused with 20 ml of 4% paraformaldehyde. Kidneys and hearts were collected for histological evaluation.
Paraffin sections prepared with a thickness of […] were stained with Masson's trichrome to measure the degree of glomerular damage and renal interstitial fibrosis. Images were obtained using a Nikon Eclipse 55i microscope and NIS-Elements D 3.0 software equipped with Nikon DS-Fil color camera (Nikon, Melville, N.Y.). The degree of glomerular damage was assessed by the blinded experimenter, rating from 0 to 4+ for 30-40 […]. […]

[2] = test system: ear skin wound model; test: Ear skin wound model (acute inflammatory response); type: in vivo, CX3CR1-GFP mouse; details: 100 mg/kg oral once daily, 4 days
Method: To investigate the effect of the inhibitor of KRS translocation to the plasma membranes during monocyte infiltration in acute inflammatory responses, an ear skin wound model using CX3CR1-GFP mouse (Stock no. #005582, Jackson Laboratory, Bar Harbor, USA) was prepared. Monocytes, macrophages and Langerhans cells appear green in CX3R1-GFP mice. Mice were administered orally with vehicle or BC-KI-00053 (100 mg/kg, dissolved in vehicle, once daily) for a total of 4 days from 2 days prior to imaging (D−2, D−1, D−0, D+1). For a vehicle, corn oil:polyethylene glycol 400:Tween 80:methyl cellulose (1%)=20:30:1:49 was used. A 31G syringe was used to puncture the skin of the ear (time D−0) to induce acute inflammatory responses. Blood vessels were labeled using anti-CD31 antibody bound to Alexa Flour 555 (identifiable as red). Confocal microscopy was used as an imaging equipment.

[3] = 25 mg/kg daily 3 weeks, Masson's trichrome
[4] = 25 mg/kg daily, after two weeks of treatment
[5] = basal, before treatment, mean±SEM

SMILES: COc1ccc(CCN(Cc2ccc(C(=O)O)cc2)c2nc3cccc(F)c3s2)cc1 [BC-KI-00053, 4-({(7-fluorobenzo[d]thiazol-2-yl)[2-(4-methoxyphenyl)ethyl]amino}methyl)benzoic acid]
- renal tissue infiltration of monocytes/macrophages (CD68 IHC) ([1]; 25 mg/kg daily 3 weeks): significantly reduced
- cortical fibrosis [1, 3]: 5.79±0.48%
- renal medulla fibrosis [1, 3]: 7.40±0.56%
- cardiac fibrosis ([1]; 25 mg/kg daily 3 weeks, Sirius red, right ventricular insertion point): 9.14±2.18%
- mean glomerular injury score ([1]; 25 mg/kg daily 3 weeks, score 0 to 4+): 1.49±0.05
- body weight reduction during the study period ([1]; 25 mg/kg daily gavage, 3 weeks): approximately 10%
- MAP ([1]; 25 mg/kg daily, after one week of treatment): 174.4±3.83 mmHg
- MAP [1, 4]: 168.8±3.74 mmHg
- proteinuria [1, 4]: 285.5 ± 47.48 mg/day
- plasma creatinine concentration ([1]; 25 mg/kg daily, end of experiment): 0.48 ± 0.02 mg/dL
- proteinuria ([1]; 25 mg/kg daily, study completed (3 weeks)): 433.1 ± 60.59 mg/day
- MAP ([1]; 25 mg/kg daily, three weeks): 176.9±5.83 mmHg
- MAP [1, 5]: 120.1±0.62 mmHg
- basal body weight [1, 5]: 304.7 ± 5.39 g
- proteinuria ([1]; baseline, before treatment): 51.0 ± 4.9 mg/day
- infiltration of monocytes and macrophages around skin wound [2]: significantly reduced
